Data published in patent publication US20250282799A1, “SUBSTITUTED PYRIDO[4,3-d]PYRIMIDINES AS KRAS MODULATORS” (Alterome Therapeutics, Inc., priority 2023, published 2025).

Test system: KRAS G12V dependent lung adenocarcinoma cell line, NCI-H441
Test: Cellular pERK (Thr202/Tyr204) FRET/HTRF assay
Format: cell-based
Conditions: Homo sapiens, NCI-H441, cellular pERK (Thr202/Tyr204) HTRF, NCI-H441 cells
Outline: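 NCI-H441 cells (KRAS G12V) plated overnight at 37 °C, then exposed to compounds for 1 hr at 37 °C, 5% CO2; DMSO as negative control. Lysates read by Eu-cryptate/d2 sandwich FRET (665 nm) for ERK1/2 phosphorylated at Thr202/Tyr204; IC50 from curve fit.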

Row | Compound | IC50 [nM]
1 | [2H]C([2H])(Oc1nc(N2CCOC[C@@H]3[C@H]2[C@@]3([2H])F)c2cnc(-c3cc(N)cc4ccc(F)c(C#C)c34)c(F)c2n1)[C@@]12CCCN1C[C@H](F)C2 [Example 185, 5-ethynyl-6-fluoro-4-(8-fluoro-4-((1S,7S,8S)-8-fluoro-5-oxa-2-azabicyclo[5.1.0]octan-2-yl-8-d)-2-(((2R,7aS)-2-fluorotetrahydro-1H-pyrrolizin-7a(5H)-yl)methoxy-d2)pyrido[4,3-d]pyrimidin-7-yl)naphthalen-2-amine] | < 50
2 | [2H]C([2H])(Oc1nc(N2CCOC[C@H]3[C@H](F)[C@H]32)c2cnc(-c3nc(N)cc(C)c3C(F)(F)F)c(F)c2n1)[C@@]12CCCN1C[C@H](F)C2 [Example 186, 6-(8-fluoro-4-((1S,7S,8S)-8-fluoro-5-oxa-2-azabicyclo[5.1.0]octan-2-yl)-2-(((2R,7aS)-2-fluorotetrahydro-1H-pyrrolizin-7a(5H)-yl)methoxy-d2)pyrido[4,3-d]pyrimidin-7-yl)-4-methyl-5-(trifluoromethyl)pyridin-2-amine] | 50 to 500
3 | C#Cc1c(F)ccc2cc(N)cc(-c3ncc4c(N5CCOC[C@H]6[C@H](F)[C@H]65)nc(OC[C@@]56CCCN5CC5(CC5)C6)nc4c3F)c12 [Example 187, 4-(2-(((S)-dihydro-1′H,3′H-spiro[cyclopropane-1,2′-pyrrolizin]-7a′(5′H)-yl)methoxy)-8-fluoro-4-((1S,7S,8S)-8-fluoro-5-oxa-2-azabicyclo[5.1.0]octan-2-yl)pyrido[4,3-d]pyrimidin-7-yl)-5-ethynyl-6-fluoronaphthalen-2-amine] | < 50
4 | [2H]C([2H])(F)Oc1c(F)ccc2cc(N)cc(-c3ncc4c(N5CCOC[C@H]6[C@H](F)[C@H]65)nc(OC[C@@]56CCCN5C/C(=C\F)C6)nc4c3F)c12 [Example 188, 6-Fluoro-4-(8-fluoro-4-((1S,7S,8S)-8-fluoro-5-oxa-2-azabicyclo[5.1.0]octan-2-yl)-2-(((S,Z)-2-(fluoromethylene)tetrahydro-1H-pyrrolizin-7a(5H)-yl)methoxy)pyrido[4,3-d]pyrimidin-7-yl)-5-(fluoromethoxy-d2)naphthalen-2-amine] | < 50
5 | [2H]C([2H])(F)Oc1c(F)ccc2cc(N)cc(-c3ncc4c(N5CCOC[C@H]6[C@H](F)[C@H]65)nc(OC[C@@]56CCCN5CC(=C)C6)nc4c3F)c12 [Example 189, 6-fluoro-4-(8-fluoro-4-((1S,7S,8S)-8-fluoro-5-oxa-2-azabicyclo[5.1.0]octan-2-yl)-2-(((S)-2-methylenetetrahydro-1H-pyrrolizin-7a(5H)-yl)methoxy)pyrido[4,3-d]pyrimidin-7-yl)-5-(fluoromethoxy-d2)naphthalen-2-amine] | < 50
6 | [2H]C([2H])(Oc1nc(N2CCOC[C@H]3[C@H](F)[C@H]32)c2cc(Cl)c(-c3cc(N)c(F)c(C)c3C(F)(F)F)c(F)c2n1)[C@@]12CCCN1C[C@H](F)C2 [Example 190, 5-(6-chloro-8-fluoro-4-((1S,7S,8S)-8-fluoro-5-oxa-2-azabicyclo[5.1.0]octan-2-yl)-2-(((2R,7aS)-2-fluorotetrahydro-1H-pyrrolizin-7a(5H)-yl)methoxy-d2)quinazolin-7-yl)-2-fluoro-3-methyl-4-(trifluoromethyl)aniline] | 50 to 500
7 | [2H]C([2H])(Oc1nc(N2CCOC[C@@H]3[C@@H](F)[C@@H]32)c2cc(Cl)c(-c3cc(N)c(F)c(C)c3C(F)(F)F)c(F)c2n1)[C@@]12CCCN1C[C@H](F)C2 [Example 191, 5-(6-chloro-8-fluoro-4-((1R,7R,8R)-8-fluoro-5-oxa-2-azabicyclo[5.1.0]octan-2-yl)-2-(((2R,7aS)-2-fluorotetrahydro-1H-pyrrolizin-7a(5H)-yl)methoxy-d2)quinazolin-7-yl)-2-fluoro-3-methyl-4-(trifluoromethyl)aniline] | 500 to 10000
8 | [2H]C([2H])([2H])Oc1c(F)cc(F)c2cc(N)cc(-c3ncc4c(N5CCOC[C@H]6[C@H](F)[C@H]65)nc(OC[C@@]56CCCN5CC(=C)C6)nc4c3F)c12 [Example 192, 6,8-difluoro-4-(8-fluoro-4-((1S,7S,8S)-8-fluoro-5-oxa-2-azabicyclo[5.1.0]octan-2-yl)-2-(((S)-2-methylenetetrahydro-1H-pyrrolizin-7a(5H)-yl)methoxy)pyrido[4,3-d]pyrimidin-7-yl)-5-(methoxy-d3)naphthalen-2-amine] | < 50
9 | [2H]C1([2H])CC[C@@]2(C([2H])([2H])Oc3nc(N4CCOC[C@H]5[C@H](F)[C@H]54)c4cnc(-c5cc(N)cc6ccc(F)c(C#C)c56)c(F)c4n3)C[C@@]([2H])(F)CN12 [Example 193, 5-ethynyl-6-fluoro-4-(8-fluoro-4-((1S,7S,8S)-8-fluoro-5-oxa-2-azabicyclo[5.1.0]octan-2-yl)-2-(((2R,7aS)-2-fluorotetrahydro-1H-pyrrolizin-7a(5H)-yl-2,5,5-d3)methoxy-d2)pyrido[4,3-d]pyrimidin-7-yl)naphthalen-2-amine] | < 50
10 | [2H]C([2H])(Oc1nc(N2CCC(=O)C[C@@H]3[C@H](F)[C@@H]32)c2cnc(-c3cc(N)cc4cc(F)c(F)c(C#C)c34)c(F)c2n1)[C@@]12CCCN1C[C@H](F)C2 [Example 194, (1R,7S,8S)-2-(7-(3-amino-8-ethynyl-6,7-difluoronaphthalen-1-yl)-8-fluoro-2-(((2R,7aS)-2-fluorotetrahydro-1H-pyrrolizin-7a(5H)-yl)methoxy-d2)pyrido[4,3-d]pyrimidin-4-yl)-8-fluoro-2-azabicyclo[5.1.0]octan-5-one] | 50 to 500
11 | [2H]C([2H])(Oc1nc(N2CCC(=O)C[C@H]3[C@H](F)[C@H]32)c2cnc(-c3cc(N)cc4cc(F)c(F)c(C#C)c34)c(F)c2n1)[C@@]12CCCN1C[C@H](F)C2 [Example 195, (1S,7R,8S)-2-(7-(3-amino-8-ethynyl-6,7-difluoronaphthalen-1-yl)-8-fluoro-2-(((2R,7aS)-2-fluorotetrahydro-1H-pyrrolizin-7a(5H)-yl)methoxy-d2)pyrido[4,3-d]pyrimidin-4-yl)-8-fluoro-2-azabicyclo[5.1.0]octan-5-one] | < 50
12 | [2H]C([2H])(Oc1nc(N2CCC(=O)C[C@@H]3[C@@H](F)[C@@H]32)c2cnc(-c3cc(N)cc4cc(F)c(F)c(C#C)c34)c(F)c2n1)[C@@]12CCCN1C[C@H](F)C2 [Example 196, (1R,7S,8R)-2-(7-(3-amino-8-ethynyl-6,7-difluoronaphthalen-1-yl)-8-fluoro-2-(((2R,7aS)-2-fluorotetrahydro-1H-pyrrolizin-7a(5H)-yl)methoxy-d2)pyrido[4,3-d]pyrimidin-4-yl)-8-fluoro-2-azabicyclo[5.1.0]octan-5-one] | < 50
13 | [2H]C([2H])(Oc1nc(N2CCC(=O)C[C@H]3[C@@H](F)[C@H]32)c2cnc(-c3cc(N)cc4cc(F)c(F)c(C#C)c34)c(F)c2n1)[C@@]12CCCN1C[C@H](F)C2 [Example 197, (1S,7R,8R)-2-(7-(3-amino-8-ethynyl-6,7-difluoronaphthalen-1-yl)-8-fluoro-2-(((2R,7aS)-2-fluorotetrahydro-1H-pyrrolizin-7a(5H)-yl)methoxy-d2)pyrido[4,3-d]pyrimidin-4-yl)-8-fluoro-2-azabicyclo[5.1.0]octan-5-one] | 50 to 500
14 | C#Cc1c(F)ccc2cc(O)cc(-c3ncc4c(N5CCOC[C@H]6[C@H](F)[C@H]65)nc(OC[C@]56C[C@@H](F)CN5C[C@@H](CN)C6)nc4c3F)c12 [Example 198, 4-(2-(((2R,6R,7aS)-2-(aminomethyl)-6-fluorotetrahydro-1H-pyrrolizin-7a(5H)-yl)methoxy)-8-fluoro-4-((1S,7S,8S)-8-fluoro-5-oxa-2-azabicyclo[5.1.0]octan-2-yl)pyrido[4,3-d]pyrimidin-7-yl)-5-ethynyl-6-fluoronaphthalen-2-ol] | 50 to 500
15 | [2H]C([2H])(Oc1nc(N2CCOC[C@H]3[C@H](F)[C@H]32)c2cnc(-c3cc(N)cc4ccc(F)c(C=C)c34)c(F)c2n1)[C@@]12CCCN1C[C@H](F)C2 [Example 199, 6-Fluoro-4-(8-fluoro-4-((1S,7S,8S)-8-fluoro-5-oxa-2-azabicyclo[5.1.0]octan-2-yl)-2-(((2R,7aS)-2-fluorotetrahydro-1H-pyrrolizin-7a(5H)-yl)methoxy-d2)pyrido[4,3-d]pyrimidin-7-yl)-5-vinylnaphthalen-2-amine] | < 50
16 | [2H]C([2H])(F)Oc1c(F)ccc2cc(N)cc(-c3ncc4c(N5CCOC[C@H]6[C@H](F)[C@H]65)nc(OC[C@@]56CCCN5CC5(CC5)C6)nc4c3F)c12 [Example 200, 4-(2-(((S)-dihydro-1′H,3′H-spiro[cyclopropane-1,2′-pyrrolizin]-7a′(5′H)-yl)methoxy)-8-fluoro-4-((1S,7S,8S)-8-fluoro-5-oxa-2-azabicyclo[5.1.0]octan-2-yl)pyrido[4,3-d]pyrimidin-7-yl)-6-fluoro-5-(fluoromethoxy-d2)naphthalen-2-amine] | < 50
17 | [2H]C([2H])(Oc1nc(N2CCOC[C@H]3[C@H](F)[C@H]32)c2cnc(-c3cc(N)cc4ccc(F)c(CC)c34)c(F)c2n1)[C@@]12CCCN1C[C@H](F)C2 [Example 201, 5-ethyl-6-fluoro-4-(8-fluoro-4-((1S,7S,8S)-8-fluoro-5-oxa-2-azabicyclo[5.1.0]octan-2-yl)-2-(((2R,7aS)-2-fluorotetrahydro-1H-pyrrolizin-7a(5H)-yl)methoxy-d2)pyrido[4,3-d]pyrimidin-7-yl)naphthalen-2-amine] | < 50
18 | C#Cc1c(F)ccc2cc(N)cc(-c3ncc4c(N5CCOC[C@H]6[C@H](F)[C@H]65)nc(OC[C@]56CC7(CC7)CN5CCC65CC5)nc4c3F)c12 [Example 206, 4-(2-(((R)-Dihydro-5′H-dispiro[cyclopropane-1,1′-pyrrolizine-6′,1″-cyclopropan]-7a′(7′H)-yl)methoxy)-8-fluoro-4-((1S,7S,8S)-8-fluoro-5-oxa-2-azabicyclo[5.1.0]octan-2-yl)pyrido[4,3-d]pyrimidin-7-yl)-5-ethynyl-6-fluoronaphthalen-2-amine] | < 50
